# Molecular target: T1, Cdc7 (BEV coexpressed huCDC7/DBF4) (Homo sapiens, UniProt O00311)
# T1 construct: made in house; host or cells: BEV (baculovirus expression vector) co-expression; insect cells are implied but no cell line is named
# Experiment: Cdc7 enzyme inhibition assay ([33P]ATP, biotinylated peptide substrate, FlashPlate)
# Assay type: biochemical
# Conditions: not given
# Experimental: Cdc7 (BEV coexpressed huCDC7/DBF4) is prepared internally. Cdc7 assays are conducted as follows with final concentrations as listed. […] Reactions are quenched after 1 hr by the addition of 90 μL stop buffer (50 mM EDTA, 2M NaCl). […] (Ki) for exemplary compounds.
# T1 sequence (O00311 whole entry): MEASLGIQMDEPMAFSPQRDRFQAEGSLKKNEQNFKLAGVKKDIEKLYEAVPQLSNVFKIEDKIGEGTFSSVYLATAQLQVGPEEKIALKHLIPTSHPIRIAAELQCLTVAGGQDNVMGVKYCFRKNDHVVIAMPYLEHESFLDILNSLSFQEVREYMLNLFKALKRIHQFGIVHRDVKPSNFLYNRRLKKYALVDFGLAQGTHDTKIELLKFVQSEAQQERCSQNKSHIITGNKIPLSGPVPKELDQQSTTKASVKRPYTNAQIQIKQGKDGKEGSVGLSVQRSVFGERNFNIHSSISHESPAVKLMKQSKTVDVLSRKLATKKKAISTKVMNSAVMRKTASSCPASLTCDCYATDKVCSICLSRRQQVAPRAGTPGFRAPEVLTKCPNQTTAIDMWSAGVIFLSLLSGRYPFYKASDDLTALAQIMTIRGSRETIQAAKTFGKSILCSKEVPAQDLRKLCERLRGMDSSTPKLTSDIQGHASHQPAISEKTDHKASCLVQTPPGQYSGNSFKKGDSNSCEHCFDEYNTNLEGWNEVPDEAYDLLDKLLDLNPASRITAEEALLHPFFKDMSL
# T1 sequence (Q9UBU7 whole entry partner): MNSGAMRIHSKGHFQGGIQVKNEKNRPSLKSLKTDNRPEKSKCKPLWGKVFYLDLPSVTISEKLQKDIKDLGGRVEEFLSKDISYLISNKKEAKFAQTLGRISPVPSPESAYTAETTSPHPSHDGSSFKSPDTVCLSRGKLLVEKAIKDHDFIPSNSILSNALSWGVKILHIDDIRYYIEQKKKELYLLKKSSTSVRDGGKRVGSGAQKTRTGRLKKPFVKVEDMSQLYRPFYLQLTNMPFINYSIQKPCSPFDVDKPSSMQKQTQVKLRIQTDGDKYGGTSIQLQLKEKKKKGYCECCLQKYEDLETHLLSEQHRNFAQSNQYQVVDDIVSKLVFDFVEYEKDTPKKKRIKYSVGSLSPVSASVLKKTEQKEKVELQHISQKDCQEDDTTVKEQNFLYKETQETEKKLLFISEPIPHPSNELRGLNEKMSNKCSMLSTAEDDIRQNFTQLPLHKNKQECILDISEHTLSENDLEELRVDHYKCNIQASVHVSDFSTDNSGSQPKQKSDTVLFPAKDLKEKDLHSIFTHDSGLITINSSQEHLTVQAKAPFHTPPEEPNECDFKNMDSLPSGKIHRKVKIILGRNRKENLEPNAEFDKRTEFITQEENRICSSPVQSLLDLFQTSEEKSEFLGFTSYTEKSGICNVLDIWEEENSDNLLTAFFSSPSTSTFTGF
row,SMILES,Ki
1,"OCC(Cc1ccccc1)Nc1nc(Cl)cc(-c2c[nH]c3ncccc23)n1 (stereo not drawn) [Example 47, 2-{[4-chloro-6-(1H-pyrrolo[2,3-b]pyridin-3-yl)pyrimidin-2-yl]amino}-3-phenylpropan-1-ol]",0.01 to 0.1 µM

# Same assay, conditions: Table 3; enzyme inhibition data (Ki)
row,SMILES,Ki
1,"COc1cnc2[nH]cc(-c3cc(Cl)nc(N[C@H]4CC[C@H](NC(=O)CNC5CCCCC5)CC4)c3)c2c1 [Example 251, N-(trans-4-{[6-chloro-4-(5-methoxy-1H-pyrrolo[2,3-b]pyridin-3-yl)pyridin-2-yl]amino}cyclohexyl)-N^2-cyclohexylglycinamide]",< 0.01 µM
2,"CS(=O)(=O)NCCS(=O)(=O)N[C@H]1CC[C@H](Nc2cc(-c3c[nH]c4ncccc34)cc(Cl)n2)CC1 [Example 194, N-(trans-4-{[6-chloro-4-(1H-pyrrolo[2,3-b]pyridin-3-yl)pyridin-2-yl]amino}cyclohexyl)-2-[(methylsulfonyl)amino]ethanesulfonamide]",< 0.01 µM
3,"O=S(=O)(Nc1cc(-c2c[nH]c3ncccc23)cc(Cl)n1)c1ccccc1 [Example 123, N-[6-chloro-4-(1H-pyrrolo[2,3-b]pyridin-3-yl)pyridin-2-yl]benzenesulfonamide]",< 0.01 µM
4,"NS(=O)(=O)c1cccc(-c2cnc3[nH]cc(-c4cc(Cl)nc(NC5CCCCC5)c4)c3c2)c1 [Example 222, 3-{3-[2-chloro-6-(cyclohexylamino)pyridin-4-yl]-1H-pyrrolo[2,3-b]pyridin-5-yl}benzenesulfonamide]",< 0.01 µM
5,"Clc1cc(-c2c[nH]c3ncccc23)cc(Nc2ccc3c(c2)OCCO3)n1 [Example 436, 6-chloro-N-(2,3-dihydro-1,4-benzodioxin-6-yl)-4-(1H-pyrrolo[2,3-b]pyridin-3-yl)pyridin-2-amine]",< 0.01 µM
6,"CC(=O)N1CCCC(CNc2cc(-c3c[nH]c4ncccc34)cc(Cl)n2)C1 (stereo not drawn) [Example 100, 1-[3-({[6-chloro-4-(1H-pyrrolo[2,3-b]pyridin-3-yl)pyridin-2-yl]amino}methyl)piperidin-1-yl]ethanone]",< 0.01 µM
7,"CC(C)(C)NC(=O)NC1CCC(Nc2cc(-c3c[nH]c4ncccc34)cc(Cl)n2)CC1 (stereo not drawn) [Example 288, 1-tert-butyl-3-(4-{[6-chloro-4-(1H-pyrrolo[2,3-b]pyridin-3-yl)pyridin-2-yl]amino}cyclohexyl)urea]",< 0.01 µM
8,"NC1CCC(CC2CCC(Nc3nc(Cl)cc(-c4c[nH]c5ncccc45)n3)CC2)CC1 (stereo not drawn) [Example 465, N-{4-[(4-aminocyclohexyl)methyl]cyclohexyl}-4-chloro-6-(1H-pyrrolo[2,3-b]pyridin-3-yl)pyrimidin-2-amine]",< 0.01 µM
9,"Clc1cc(-c2c[nH]c3ncccc23)nc(NCC2CCCO2)n1 (stereo not drawn) [Example 265, 4-chloro-6-(1H-pyrrolo[2,3-b]pyridin-3-yl)-N-(tetrahydrofuran-2-ylmethyl)pyrimidin-2-amine]",< 0.01 µM
10,"Clc1cc(-c2c[nH]c3ncccc23)cc(NC2CCCC(N3CCCCC3)C2)n1 (stereo not drawn) [Example 324, 6-chloro-N-[3-(piperidin-1-yl)cyclohexyl]-4-(1H-pyrrolo[2,3-b]pyridin-3-yl)pyridin-2-amine]",< 0.01 µM
11,"Oc1cccc(CNc2nc(Cl)cc(-c3c[nH]c4ncccc34)n2)c1 [Example 457, 3-({[4-chloro-6-(1H-pyrrolo[2,3-b]pyridin-3-yl)pyrimidin-2-yl]amino}methyl)phenol]",< 0.01 µM
12,"CC(=O)c1ccc(S(=O)(=O)NCC(C)(C)CNc2cc(-c3c[nH]c4ncccc34)cc(Cl)n2)cc1 [Example 304, 4-acetyl-N-(3-{[6-chloro-4-(1H-pyrrolo[2,3-b]pyridin-3-yl)pyridin-2-yl]amino}-2,2-dimethylpropyl)benzenesulfonamide]",0.01 to 0.1 µM
13,"CN1CCN(c2ccc(Nc3cc(-c4c[nH]c5ncccc45)cc(Cl)n3)cc2)CC1 [Example 443, 6-chloro-N-[4-(4-methylpiperazin-1-yl)phenyl]-4-(1H-pyrrolo[2,3-b]pyridin-3-yl)pyridin-2-amine]",< 0.01 µM
14,"O=S(=O)(N[C@@H]1CCCC[C@H]1Nc1cc(-c2c[nH]c3ncccc23)cc(Cl)n1)C1CC1 [Example 330, N-[(1R,2R)-2-{[6-chloro-4-(1H-pyrrolo[2,3-b]pyridin-3-yl)pyridin-2-yl]amino}cyclohexyl]cyclopropanesulfonamide]",0.01 to 0.1 µM
15,"Clc1cc(-c2c[nH]c3ncccc23)cc(NCCCc2ccccc2)n1 [Example 416, 6-chloro-N-(3-phenylpropyl)-4-(1H-pyrrolo[2,3-b]pyridin-3-yl)pyridin-2-amine]",< 0.01 µM
16,"COc1cnc2[nH]cc(-c3cc(Cl)nc(N[C@H]4CC[C@H](NC(=O)CN5CCOCC5)CC4)c3)c2c1 [Example 254, N-(trans-4-{[6-chloro-4-(5-methoxy-1H-pyrrolo[2,3-b]pyridin-3-yl)pyridin-2-yl]amino}cyclohexyl)-2-(morpholin-4-yl)acetamide]",< 0.01 µM
17,"O=C(COc1ccccc1)NC1CCCC(Nc2cc(-c3c[nH]c4ncccc34)cc(Cl)n2)C1 (stereo not drawn) [Example 293, N-(3-{[6-chloro-4-(1H-pyrrolo[2,3-b]pyridin-3-yl)pyridin-2-yl]amino}cyclohexyl)-2-phenoxyacetamide]",< 0.01 µM
18,"O=C(C1CC1)N1CCCC(C2CCC(Nc3cc(-c4c[nH]c5ncccc45)cc(Cl)n3)CC2)C1 (stereo not drawn) [Example 188, [3-(4-{[6-chloro-4-(1H-pyrrolo[2,3-b]pyridin-3-yl)pyridin-2-yl]amino}cyclohexyl)piperidin-1-yl](cyclopropyl)methanone]",< 0.01 µM

row,SMILES,Ki
1,"Cc1cccc(C)c1N1CCN(CC(=O)N[C@H]2CC[C@H](Nc3cc(-c4c[nH]c5ncccc45)cc(Cl)n3)CC2)CC1 [Example 423, N-(trans-4-{[6-chloro-4-(1H-pyrrolo[2,3-b]pyridin-3-yl)pyridin-2-yl]amino}cyclohexyl)-2-[4-(2,6-dimethylphenyl)piperazin-1-yl]acetamide]",< 0.01 µM
2,"COc1cnc2[nH]cc(-c3cc(Cl)nc(NC4CCCCC4)c3)c2c1 [Example 178, 6-chloro-N-cyclohexyl-4-(5-methoxy-1H-pyrrolo[2,3-b]pyridin-3-yl)pyridin-2-amine]",< 0.01 µM
3,"CCN(CCO)CC(=O)N[C@H]1CC[C@H](Nc2cc(-c3c[nH]c4ncc(OC)cc34)cc(Cl)n2)CC1 [Example 432, N-(trans-4-{[6-chloro-4-(5-methoxy-1H-pyrrolo[2,3-b]pyridin-3-yl)pyridin-2-yl]amino}cyclohexyl)-N~2~-ethyl-N~2~-(2-hydroxyethyl)glycinamide]",< 0.01 µM
4,"O=C(NC1CCC(Nc2cc(-c3c[nH]c4ncccc34)cc(Cl)n2)CC1)c1ccccc1 (stereo not drawn) [Example 65, N-(4-{[6-chloro-4-(1H-pyrrolo[2,3-b]pyridin-3-yl)pyridin-2-yl]amino}cyclohexyl)benzamide]",< 0.01 µM
5,"CNCC(=O)N[C@H]1CC[C@H](Nc2cc(-c3c[nH]c4ncc(OC)cc34)cc(Cl)n2)CC1 [Example 227, N-(trans-4-{[6-chloro-4-(5-methoxy-1H-pyrrolo[2,3-b]pyridin-3-yl)pyridin-2-yl]amino}cyclohexyl)-N^2-methylglycinamide]",< 0.01 µM
6,"O=C(Nc1cc(-c2c[nH]c3ncccc23)cc(Cl)n1)c1ccccc1 [Example 86, N-[6-chloro-4-(1H-pyrrolo[2,3-b]pyridin-3-yl)pyridin-2-yl]benzamide]",< 0.01 µM
7,"CN[C@@H](C)C(=O)N[C@H]1CC[C@H](Nc2cc(-c3c[nH]c4ncccc34)cc(Cl)n2)CC1 [Example 116, N-(trans-4-{[6-chloro-4-(1H-pyrrolo[2,3-b]pyridin-3-yl)pyridin-2-yl]amino}cyclohexyl)-N^2-methyl-L-alaninamide]",< 0.01 µM
8,"Clc1cc(-c2c[nH]c3ncccc23)cc(NCCc2ccc3c(c2)OCO3)n1 [Example 399, N-[2-(1,3-benzodioxol-5-yl)ethyl]-6-chloro-4-(1H-pyrrolo[2,3-b]pyridin-3-yl)pyridin-2-amine]",< 0.01 µM
9,"O=S(=O)(NCCNc1cc(-c2c[nH]c3ncccc23)cc(Cl)n1)C1CC1 [Example 89, N-(2-{[6-chloro-4-(1H-pyrrolo[2,3-b]pyridin-3-yl)pyridin-2-yl]amino}ethyl)cyclopropanesulfonamide]",< 0.01 µM
10,"COc1cnc2[nH]cc(-c3cc(Cl)nc(NC4CCC(CC5CCC(N)CC5)CC4)c3)c2c1 (stereo not drawn) [Example 237, N-{4-[(4-aminocyclohexyl)methyl]cyclohexyl}-6-chloro-4-(5-methoxy-1H-pyrrolo[2,3-b]pyridin-3-yl)pyridin-2-amine]",< 0.01 µM
11,"Clc1cc(-c2c[nH]c3ncccc23)nc(NCc2ccncc2)n1 [Example 266, 4-chloro-N-(pyridin-4-ylmethyl)-6-(1H-pyrrolo[2,3-b]pyridin-3-yl)pyrimidin-2-amine]",< 0.01 µM
12,"Clc1cc(-c2c[nH]c3ncccc23)nc(NCc2ccccn2)n1 [Example 268, 4-chloro-N-(pyridin-2-ylmethyl)-6-(1H-pyrrolo[2,3-b]pyridin-3-yl)pyrimidin-2-amine]",< 0.01 µM
13,"CN1CCC[C@H]1C(=O)NC1CCCC(Nc2cc(-c3c[nH]c4ncccc34)cc(Cl)n2)C1 (stereo partly drawn) [Example 119, N-(3-{[6-chloro-4-(1H-pyrrolo[2,3-b]pyridin-3-yl)pyridin-2-yl]amino}cyclohexyl)-1-methyl-L-prolinamide]",< 0.01 µM
14,"Clc1cc(-c2c[nH]c3ncccc23)cc(NC2CCC2)n1 [Example 92, 6-chloro-N-cyclobutyl-4-(1H-pyrrolo[2,3-b]pyridin-3-yl)pyridin-2-amine]",< 0.01 µM
15,"Clc1cc(-c2c[nH]c3ncccc23)cc(NC2CCCN(C3CCC3)C2)n1 (stereo not drawn) [Example 104, 6-chloro-N-(1-cyclobutylpiperidin-3-yl)-4-(1H-pyrrolo[2,3-b]pyridin-3-yl)pyridin-2-amine]",< 0.01 µM
16,"CN1CCCC(Nc2cc(-c3c[nH]c4ncccc34)cc(Cl)n2)C1 (stereo not drawn) [Example 315, 6-chloro-N-(1-methylpiperidin-3-yl)-4-(1H-pyrrolo[2,3-b]pyridin-3-yl)pyridin-2-amine]",< 0.01 µM
17,"OCCNc1nc(Cl)cc(-c2c[nH]c3ncccc23)n1 [Example 467, 2-{[4-chloro-6-(1H-pyrrolo[2,3-b]pyridin-3-yl)pyrimidin-2-yl]amino}ethanol]",< 0.01 µM

# From patent US8435980B2 (AbbVie Inc., priority 2009, dated 2013)
